The subject of data set [1] is Leishmania infantum. As to the kind of experiment: Antileishmanial activity against promastigote form of Leishmania infantum MCAN/ES/96/BCN150 after 48 hrs by resazurin fluorescence assay. The class given is functional, organism-based. On the technique in general: Resazurin is reduced to fluorescent resorufin, in cell work by metabolically active cells.
For data set [2], the system named is Leishmania amazonensis. As to the kind of experiment: Antileishmanial activity against promastigote form of Leishmania amazonensis MHOM/Br/79/Maria after 48 hrs by resazurin fluorescence assay. It is filed as functional, organism-based.
Data set [3] relates to Leishmania braziliensis. The data set can be described thus: Antileishmanial activity against promastigote form of Leishmania braziliensis 2903 after 48 hrs by resazurin fluorescence assay. It is filed as functional, organism-based. Particulars: Leishmania braziliensis, 2903, 48 h.
Data set [4] concerns Leishmania guyanensis. The data set can be described thus: Antileishmanial activity against promastigote form of Leishmania guyanensis 141/93 after 48 hrs by resazurin fluorescence assay. The class given is functional, organism-based. Particulars: 141/93, 48 h.
The nature of data set [5]: Cytotoxicity against mouse J774 cells assessed as reduction in cell viability after 24 hrs by resazurin fluorescence assay. It is filed as cell-based.
Data set [6] is described as follows: Selectivity index, ratio of CC50 for mouse J774 cells to IC50 for promastigote form of Leishmania infantum MCAN/ES/96/BCN150. The class given is functional.
Data set [7] can be described thus: Selectivity index, ratio of CC50 for mouse J774 cells to IC50 for promastigote form of Leishmania amazonensis MHOM/Br/79/Maria. It is filed as functional.
A short description of data set [8]: Selectivity index, ratio of CC50 for mouse J774 cells to IC50 for promastigote form of Leishmania braziliensis 2903. It is filed as functional.
Data set [9] can be described thus: Selectivity index, ratio of CC50 for mouse J774 cells to IC50 for promastigote form of Leishmania guyanensis 141/93. The class given is functional.
Data set [10] relates to Calf thymus DNA. As to the kind of experiment: Binding affinity to calf thymus DNA at 10 uM by UV-visible titration method. The class given is nucleic-acid assay. The settings on record: Bos taurus.
Data set [11] relates to Leishmania infantum. The data set can be described thus: Antileishmanial activity against amastigote form of Leishmania infantum MCAN/ES/96/BCN150 infected in mouse J774 cells assessed as reduction in intracellular amastigotes compound treated for 48 hrs followed by 3 days incubation for transformation by resazurin fluorescence assay. The class given is functional, organism-based. Particulars: MCAN/ES/96/BCN150, J774.

Data set [12] in a line: Selectivity index, ratio of CC50 for mouse J774 cells to IC50 for amastigote form of Leishmania infantum MCAN/ES/96/BCN150 infected in mouse J774 cells. It is filed as functional.
Data set [13] relates to Leishmania amazonensis. The data set can be described thus: Antileishmanial activity against amastigote form of Leishmania amazonensis MHOM/Br/79/Maria infected in mouse J774 cells assessed as reduction in intracellular amastigotes compound treated for 48 hrs followed by 3 days incubation for transformation by resazurin fluorescence assay. The class given is functional, organism-based.

Data set [14] relates to Leishmania infantum. As to the kind of experiment: Antileishmancidal activity against amastigote form of Leishmania infantum MCAN/ES/96/BCN150 infected in BALB/c mouse assessed as reduction of parasite burden in spleen at 5 mg/kg, ip qd for 5 consecutive days starting 21 days post infection measured after 7 days relative to untreated control. The class given is functional. Further details: scale not given: the % may be the effect or the level left. Particulars: route intraperitoneal.

Data set [15] has as its system Leishmania infantum. The data set can be described thus: Antileishmancidal activity against amastigote form of Leishmania infantum MCAN/ES/96/BCN150 infected in BALB/c mouse assessed as reduction of parasite burden in liver at 5 mg/kg, ip qd for 5 consecutive days starting 21 days post infection measured after 7 days relative to untreated control. It is filed as functional.

Data set [16] concerns Calf thymus DNA. As to the kind of experiment: Binding affinity to calf thymus DNA assessed as hypochromic effect at DNA-compound ratio of 3 by UV-visible titration method. The class given is nucleic-acid assay. Particulars: Bos taurus.
The subject of data set [17] is Calf thymus DNA. The data set can be described thus: Binding affinity to calf thymus DNA by UV-visible titration method. The class given is nucleic-acid assay. Particulars: Bos taurus.
For data set [18], the species on record is Bos taurus. The data set can be described thus: Effect on calf thymus DNA viscosity at 1 to 10 uM.
For data set [19], the target named is T1, Albumin (Bos taurus, UniProt P02769). As to the kind of experiment: Binding affinity to bovine serum albumin after 10 mins by fluorimetric titration method. It is filed as ADME. Particulars: cattle, isolated protein.
T1 sequence (P02769 whole entry): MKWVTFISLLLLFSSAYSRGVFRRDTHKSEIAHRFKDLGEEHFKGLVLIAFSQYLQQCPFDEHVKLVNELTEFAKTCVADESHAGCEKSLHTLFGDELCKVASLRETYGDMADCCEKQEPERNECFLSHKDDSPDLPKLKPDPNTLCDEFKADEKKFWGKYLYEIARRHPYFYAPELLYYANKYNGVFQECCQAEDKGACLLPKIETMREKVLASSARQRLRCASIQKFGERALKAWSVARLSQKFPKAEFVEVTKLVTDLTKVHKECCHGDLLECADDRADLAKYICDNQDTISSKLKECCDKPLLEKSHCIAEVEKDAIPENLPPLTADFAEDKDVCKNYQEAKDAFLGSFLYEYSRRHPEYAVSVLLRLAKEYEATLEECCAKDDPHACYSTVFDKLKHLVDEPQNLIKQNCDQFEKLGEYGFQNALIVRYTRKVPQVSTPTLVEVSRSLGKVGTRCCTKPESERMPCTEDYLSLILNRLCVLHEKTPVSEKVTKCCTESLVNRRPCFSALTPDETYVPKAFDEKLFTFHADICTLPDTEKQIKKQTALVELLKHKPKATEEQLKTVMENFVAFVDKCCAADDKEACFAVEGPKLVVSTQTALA
Data set [20] concerns the target T1, Albumin. The data set can be described thus: Binding affinity to bovine serum albumin assessed as quenching constant after 10 mins by Stern-Volmer plot method. The settings on record: cattle, isolated protein. The class given is ADME.
In data set [21] the target is T1, Albumin. As to the kind of experiment: Competitive binding affinity to bovine serum albumin site 1 assessed as quenching constant after 10 mins by fluorimetric titration method in presence of warfarin. The class given is ADME. The settings on record: cattle, isolated protein.
Data set [22] addresses T1, Albumin. As to the kind of experiment: Competitive binding affinity to bovine serum albumin site 2 assessed as quenching constant after 10 mins by fluorimetric titration method in presence of ibuprofen. The class given is ADME. Particulars: cattle, isolated protein.
Data set [23] is described as follows: Selectivity index, ratio of CC50 for mouse J774 cells to IC50 for amastigote form of Leishmania amazonensis MHOM/Br/79/Maria infected in mouse J774 cells. The class given is functional.
Data set [24] relates to Mus musculus. The data set can be described thus: Toxicity in BALB/c mouse assessed as gross weight loss at 5 mg/kg, ip qd for 5 consecutive days. Further details: dose 5 mg/kg, route intraperitoneal. Particulars: in vivo. The class given is organism-based.
Data set [25] relates to Mus musculus. The data set can be described thus: Toxicity in BALB/c mouse assessed as hair loss at 5 mg/kg, ip qd for 5 consecutive days. The class given is organism-based. Further details: dose 5 mg/kg, route intraperitoneal. The settings on record: in vivo.
Where [26] appears, read: Leishmania infantum, MCAN/ES/96/BCN150, 48 h, read-out: IC50.
[27] abbreviates: Leishmania amazonensis, MHOM/Br/79/Maria, 48 h, read-out: IC50.

The source made the active and inactive calls. No cut-off for these calls is given here.

Usually IC50 stands for the concentration that inhibits the measured activity by half. A word on the CC50: it is the concentration giving 50% cytotoxicity.

With `O=C(c1ccccn1)c1cccc2c(-c3ccccc3)nnn12`, the 50% inhibitory concentration (IC50) in data set [1] (setting [26]) was 173 µM; in data set [2] (setting [27]) it was 106 µM; in data set [3] it was 169 µM; in [4], 126 µM. Moreover, the CC50 at 24 h in data set [5] is ≥ 300 µM. Further, the “Ratio CC50/IC50” value is on record as >1.9 in [6], >2.8 in data set [7], >1.8 in data set [8] and >2.4 in data set [9].
Take `O=C(c1ccccn1)c1cccc(-c2nnn3ccccc23)n1`: the IC50 was 231 µM in [1] (setting [26]), 108 µM in [2] (setting [27]), 190 µM in [3] and 109 µM in [4]. Further, in data set [5], the CC50 at 24 h was ≥ 300 µM. Further, the “Ratio CC50/IC50” value is >1.3 in data set [6], >2.8 in [7], >1.6 in data set [8] and >2.8 in [9]. Also, in data set [10], the outcome was inactive.
On to `O=C(c1cccc(C(=O)c2cccc(-c3nnn4ccccc34)n2)n1)c1cccc(-c2nnn3ccccc23)n1`, for which the IC50 in data set [1] (setting [26]) is 99.8 µM; in [2] (setting [27]) it was 53.7 µM; in [3], 59.4 µM; in data set [4], 28.7 µM; in data set [11], 38 µM; in [13] (j774), “Not Active”. Also, the CC50 at 24 h in data set [5] was ≥ 300 µM. In addition, the “Ratio CC50/IC50” value is >3 in data set [6]; >5.6 in data set [7]; >5.1 in data set [8]; >10.4 in data set [9]; >7.9 in [12]. In addition, the Activity is 78.2% in data set [14] and 60% in data set [16]. Also, the result in data set [15] and in [18] was inactive. In addition, the Kb turned out to be 3.26 ×10⁵ /M in data set [17], 1.9 ×10⁴ /M in data set [19], 8.2 ×10³ /M in data set [21] and 3.8 ×10³ /M in data set [22]. Besides, in [19], the Kq is 2.4 ×10¹³ /M/sec. For the same molecule, the KSV in [20] was determined as 2.4 ×10⁵ /M.
In the case of `O=C(c1cccc2c(-c3ccccc3)nnn12)c1cccc2c(-c3ccccc3)nnn12`, the IC50 result in data set [1] is “Not Active”; in [2], “Not Active”; in data set [3] it was 56.8 µM; in data set [4], 53.8 µM. Besides, the CC50 at 24 h in [5] was ≥ 300 µM. Also, the “Ratio CC50/IC50” value in data set [8] is >2.5; in data set [9], >4.5.
For `CCCCCCCCCCCCCCCCOP(=O)([O-])OCC[N+](C)(C)C` [MILTEFOSINE], the 50% inhibitory concentration (IC50) in data set [1] (setting [26]) was found to be 21.3 µM; in data set [2] (setting [27]), 28.3 µM; in data set [3], 27.1 µM; in data set [4] it was 53.6 µM. Also, in data set [5], the CC50 at 24 h amounted to 164 µM. For the same molecule, the “Ratio CC50/IC50” value in [6] amounted to 7.7; in [7], 5.8; in data set [8], 6; in data set [9] it was 3.1; in data set [12], 5.7; in data set [23], 6.5.
For the molecule `O=C(c1cccc(-c2nnn3ccccc23)n1)c1cccc(-c2nnn3ccccc23)n1`, the IC50 in data set [1] (setting [26]) was found to be 47.3 µM; in data set [2] (setting [27]) it was 89.6 µM; in data set [3] it was 26.8 µM; in [4], 29.3 µM; in data set [11], 19.5 µM; in data set [13] (Leishmania amazonensis, MHOM/Br/79/Maria, J774, read-out: IC50), 115 µM. Moreover, the CC50 at 24 h in data set [5] is ≥ 300 µM. In addition, the “Ratio CC50/IC50” value in [6] is reported as >6.3; in data set [7], >3.3; in data set [8] it was >11.2; in [9] it was >10.2; in [12] it was >15.3; in data set [23], >2.6. The Activity was 99.3% in data set [14]; 92.8% in data set [15] (route intraperitoneal); “Non-toxic” in data set [24]; “Non-toxic” in [25]; 60% in data set [16]. For the same molecule, the Kb in data set [17] came to 1.14 ×10⁵ /M; in data set [19], 2.5 ×10⁴ /M; in [21] it was 9.3 ×10³ /M; in data set [22] it was 5.3 ×10³ /M. In addition, the outcome in data set [18] was inactive. This molecule displayed a Kq in [19] of 2.6 ×10¹³ /M/sec. For the same molecule, the KSV in data set [20] amounted to 2.6 ×10⁵ /M.

These data come from ChEMBL document CHEMBL3351529, “Triazolopyridyl ketones as a novel class of antileishmanial agents. DNA binding and BSA interaction” (Bioorg Med Chem, 2014).
